Biological target: T1, KRAS G12C (GMPPNP-loaded) and cRAF Ras-binding domain (Homo sapiens, UniProt P01116, C118S/C51S/C80L/G12C)
T1 construct: truncated version comprising amino acids 1-169
Assay: Inhibition of KRAS G12C and cRAF binding (AlphaScreen)
Details: KRAS G12C preloaded with GTP analogue GMPPNP, 2 hours preincubation
Description: The ability of compounds of Formula (A), Formula (B) and Formula (C), and pharmaceutically acceptable salts and/or isotopologues thereof, to inhibit activity of the GTP-bound form of KRAS G12C can be tested using methods such as the in vitro assay described in Example 179 below. Example 179 describes determining, for various compounds, the half-maximal inhibition (IC50) of KRAS G12C loaded with GTP analogue GMPPNP from binding to cRaf, as the Ras-binding domain (RBD). Example 180 describes determining, for various compounds, the half-maximal inhibition (IC50) of KRAS G12C loaded with GTP analogue GMPPNP from binding to PI3Kα, as the Ras-binding domain (RBD). Example 181 describes testing compounds for the ability to inhibit cell viability in MCF10A G12C/A59G mutant, which abrogates GTPase activity, thus preventing hydrolysis of GTP to GDP.
The AlphaScreen technology was used to determine IC50s for compound inhibition of KRAS G12C (present as the Cys-light (C51S, C80L and C118S), truncated version comprising amino acids 1-169) and cRAF interaction. Compounds were diluted in 100% DMSO and each compound concentration was spotted at 200 nl/well onto low volume, white 384 well plates. The KRAS G12C contained a biotin-AviTag and the cRaf, as Ras-binding domain (amino acids 50-131, RBD), was GST-tagged. KRAS G12C was preloaded with the GTP analogue Guanosine 5′-[β,γ-imido]triphosphate (GMPPNP). The KRAS G12C was diluted in 25 mM Hepes, pH 7.4, 150 mM NaCl, 5 mM MgCl2, 0.01% TritonX-100 and 10 μM GMPPNP and added at 10 ul/well to compound-spotted plates resulting in a DMSO concentration of 2%. Plates were incubated for 2 hours. A mixture of RBD and the AlphaScreen streptavidin donor and glutathione acceptor beads diluted in 25 mM Hepes, pH 7.4, 150 mM NaCl, 5 mM MgCl2, 0.01% TritonX-100 and 2% DMSO was then added at 10 ul/well and incubated for 60-90 minutes before the samples were read for emission at 570 nm after excitation of the donor beads at 680 nm. All incubations were performed at room temperature. The final top compound concentration was 50 μM with 1:3 titrations for 10-point dose response curves. Final assay conditions were 0.5 nM KRAS G12C, 0.75 nM RBD and 5 μg/ml each of AlphaScreen donor and acceptor beads. IC50s were determined using nonlinear regression fit of [inhibitor] vs. response (4 parameters). […]

T1 sequence (P01116 1-169 isoform P01116-2 G12C/C51S/C80L/C118S): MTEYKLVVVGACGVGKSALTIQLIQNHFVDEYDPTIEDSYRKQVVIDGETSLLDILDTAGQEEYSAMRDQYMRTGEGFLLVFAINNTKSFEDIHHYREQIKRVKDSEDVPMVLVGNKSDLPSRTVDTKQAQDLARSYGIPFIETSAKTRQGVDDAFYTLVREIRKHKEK

IC50 | Compound
10 to 100 nM | Cc1cc(N)nc(-c2ncc3c(N4CCN(C#N)[C@@H](CC#N)C4)nc(OC[C@@]45CCCN4C[C@H](F)C5)nc3c2F)c1C(F)(F)F [Example 13, (S)-4-(7-(6-amino-4-methyl-3-(trifluoromethyl)pyridin-2-yl)-8-fluoro-2-(((2R,7aS)-2-fluorohexahydro-1H-pyrrolizin-7a-yl)methoxy)pyrido[4,3-d]pyrimidin-4-yl)-2-(cyanomethyl)piperazine-1-carbonitrile]
100 to 500 nM | Cc1cc(N)nc(-c2ncc3c(N(C)[C@@H]4CCN(C(=O)/C=C/CN5CCOCC5)C4)nc(OC[C@@]45CCCN4C[C@H](F)C5)nc3c2F)c1C(F)(F)F [Example 120]
100 to 500 nM | CN(c1nc(OC[C@@]23CCCN2C[C@H](F)C3)nc2c(F)c(-c3cccc(Cl)c3C3CC3)ncc12)[C@@H]1CCN(C(=O)C#CCN2CCOCC2)C1 [Example 223]
< 10 nM | Cc1cc(N)nc(-c2ncc3c(N(C)[C@@H]4CCN(C(=O)/C=C/C5CCN5C)C4)nc(OC[C@@]45CCCN4C[C@H](F)C5)nc3c2F)c1C(F)(F)F (stereo in doubt) [Example 134]
< 10 nM | Cc1noc(/C=C/C(=O)N2CC[C@@H](N(C)c3nc(OC[C@@]45CCCN4C[C@H](F)C5)nc4c3C[C@@H](C)[C@H](c3nc(N)cc(C)c3C(F)(F)F)C4)C2)n1 [Example 136]
10 to 100 nM | CN(C)C/C=C/C(=O)N1CC[C@@H](N(C)c2nc(OC[C@@]34CCCN3C[C@H](F)C4)nc3c(F)c(-c4nc(N)cc5cccc(Cl)c45)ncc23)C1 [Example 61, (E)-1-((R)-3-((7-(3-amino-8-chloroisoquinolin-1-yl)-8-fluoro-2-(((2R,7aS)-2-fluorohexahydro-1H-pyrrolizin-7a-yl)methoxy)pyrido[4,3-d]pyrimidin-4-yl)(methyl)amino)pyrrolidin-1-yl)-4-(dimethylamino)but-2-en-1-one]
≥ 500 nM | C=CC(=O)N1CC[C@@H](N(C)c2nc(OC[C@@]34CCCN3C[C@H](F)C4)nc3c(F)c(-c4cccc(F)c4C4CC4)ncc23)C1 [Example 220]
≥ 500 nM | CC(C)c1noc(/C=C/C(=O)N2CC[C@@H](N(C)c3nc(OC[C@@]45CCCN4C[C@H](F)C5)nc4c(F)c(-c5nc(N)ccc5F)ncc34)C2)n1 [Example 178, (E)-1-((R)-3-((7-(6-amino-3-fluoropyridin-2-yl)-8-fluoro-2-(((2R,7aS)-2-fluorotetrahydro-1H-pyrrolizin-7a(5H)-yl)methoxy)pyrido[4,3-d]pyrimidin-4-yl)(methyl)amino)pyrrolidin-1-yl)-3-(3-isopropyl-1,2,4-oxadiazol-5-yl)prop-2-en-1-one]
100 to 500 nM | CO[C@@H]1CCN(C/C=C/C(=O)N2CC[C@@H](N(C)c3nc(OC[C@@]45CCCN4C[C@H](F)C5)nc4c(F)c(-c5cccc(Cl)c5C5CC5)ncc34)C2)C1 [Example 222]
< 10 nM | C=CC(=O)N1C[C@H](F)[C@@H](N(C)c2nc(OC[C@@]34CCCN3C[C@H](F)C4)nc3c(F)c(-c4cc(O)cc(Cl)c4C4CC4)ncc23)C1 [Example 243]
< 10 nM | CN1CC[C@H]1/C=C/C(=O)N1CC[C@@H](N(C)c2nc(OC[C@@]34CCCN3C[C@H](F)C4)nc3c(F)c(-c4nc(N)cc5cccc(Cl)c45)ncc23)C1 (single isomer, unassigned) [Example 6]
10 to 100 nM | C=CC(=O)N1CC[C@@H](N(C)c2nc(OC[C@@]34CCCN3C[C@H](F)C4)nc3c(F)c(-c4cccc(Cl)c4C(F)(F)F)ncc23)[C@H]1C [Example 217]
100 to 500 nM | C=CC(=O)N1CC[C@@H](N(C)c2nc(OC[C@@]34CCCN3C[C@H](F)C4)nc3c(F)c(-c4cccc(Cl)c4C(F)(F)F)ncc23)C1 [Example 255]
10 to 100 nM | CN(c1nc(OC[C@@]23CCCN2C[C@H](F)C3)nc2c(F)c(-c3cccc(Cl)c3C3CC3)ncc12)[C@@H]1CCN(C(=O)/C=C/CN2[C@@H]3CC[C@H]2COC3)C1 [Example 241]
10 to 100 nM | Cc1cc(N)nc(-c2ncc3c(N(C)[C@@H]4CCN(C(=O)C#CCN5CCOCC5)C4)nc(OC[C@@]45CCCN4C[C@H](F)C5)nc3c2F)c1C(F)(F)F [Example 101]
≥ 500 nM | C=CC(=O)N1CC[C@@H](N(C)c2nc(OC[C@@]34CCCN3C[C@H](F)C4)nc3c(F)c(-c4nc(N)ccc4C4CC4)ncc23)C1 [Example 166, 1-((R)-3-((7-(6-amino-3-cyclopropylpyridin-2-yl)-8-fluoro-2-(((2R,7aS)-2-fluorotetrahydro-1H-pyrrolizin-7a(5H)-yl)methoxy)pyrido[4,3-d]pyrimidin-4-yl)(methyl)amino)pyrrolidin-1-yl)prop-2-en-1-one]
< 10 nM | Cc1noc(/C=C/C(=O)N2CC[C@@H](N(C)c3nc(OC[C@@]45CCCN4C[C@H](F)C5)nc4c3C[C@@H](C)[C@H](c3nc(N)cc(C)c3C(F)(F)F)C4)C2)n1 (single isomer, unassigned) [Example 57]

IC50 | Compound
< 10 nM | CN(c1nc(OC[C@@]23CCCN2C[C@H](F)C3)nc2c(F)c(-c3cccc(Cl)c3C3CC3)ncc12)[C@@H]1CCN(C(=O)C#C[C@@]2(C)CCCN2)C1 [Example 215]
10 to 100 nM | C=CC(=O)N1CC[C@@H](N(C)c2nc(OC[C@@]34CCCN3C[C@H](F)C4)nc3c(F)c(-c4cccc(Cl)c4C(F)(F)F)ncc23)[C@H]1C (single isomer, unassigned) [Example 78]
10 to 100 nM | Cc1cc(N)nc(-c2ncc3c(N(C)CC4CN(C(=O)/C=C/c5nc(C(C)(C)O)no5)C4)nc(OC[C@@]45CCCN4C[C@H](F)C5)nc3c2F)c1C(F)(F)F [Example 97]
< 10 nM | Cc1cc(N)nc(-c2ncc3c(N(C)[C@@H]4CCN(C(=O)C#CCN(C)C)C4)nc(OC[C@@]45CCCN4C[C@H](F)C5)nc3c2F)c1C(F)(F)F [Example 159]
10 to 100 nM | CN1CC[C@@H]1/C=C/C(=O)N1CC[C@@H](N(C)c2nc(OC[C@@]34CCCN3C[C@H](F)C4)nc3c(F)c(-c4cccc(Cl)c4C(F)(F)F)ncc23)C1 [Example 242]
≥ 500 nM | C=CC(=O)N1CC[C@@H](N(C)c2nc(OC[C@@]34CCCN3C[C@H](F)C4)nc3c(F)c(-c4cc(F)cc(F)c4C4CC4)ncc23)C1 [Example 249]
100 to 500 nM | C=CC(=O)N1CC[C@@H](N(C)c2nc(OC[C@@]34CCCN3C[C@H](F)C4)nc3c(F)c(-c4cc(O)cc5nccnc45)ncc23)C1 [Example 192]
10 to 100 nM | Cc1cc(N)nc(-c2ncc3c(N(C)[C@@H]4CCN(C(=O)/C=C/CN(C)C)C4)nc(OC[C@@]45CCCN4C[C@H](F)C5)nc3c2F)c1C(F)(F)F [Example 62, (E)-1-((R)-3-((7-(6-amino-4-methyl-3-(trifluoromethyl)pyridin-2-yl)-8-fluoro-2-(((2R,7aS)-2-fluorohexahydro-1H-pyrrolizin-7a-yl)methoxy)pyrido[4,3-d]pyrimidin-4-yl)(methyl)amino)pyrrolidin-1-yl)-4-(dimethylamino)but-2-en-1-one]
< 10 nM | CN(c1nc(OC[C@@]23CCCN2C[C@H](F)C3)nc2c(F)c(-c3cccc(Cl)c3C3CC3)ncc12)[C@@H]1CCN(C(=O)C#C[C@]2(C)CCCN2)C1 [Example 193]
< 10 nM | CN(c1nc(OC[C@@]23CCCN2C[C@H](F)C3)nc2c(F)c(-c3nc(N)cc4cccc(F)c34)ncc12)[C@@H]1CCN(C(=O)/C=C/c2nc(C(C)(C)O)no2)C1 [Example 142]
100 to 500 nM | C=CC(=O)N1CC[C@@H](N(C)c2nc(OC[C@@]34CCCN3C[C@H](F)C4)nc3c(F)c(-c4cccc(Cl)c4C4CC4)ncc23)[C@H]1C [Example 236]
≥ 500 nM | C=CC(=O)N1CC[C@@H](N(C)c2nc(OC[C@@]34CCCN3C[C@H](F)C4)nc3c(F)c(-c4cc(O)cnc4C4CC4)ncc23)C1 [Example 253]
≥ 500 nM | C=CC(=O)N1CC[C@@H](N(C)c2nc(OC[C@@]34CCCN3C[C@H](F)C4)nc3c(F)c(-c4cccc(OC)c4C4CC4)ncc23)C1 [Example 189]
≥ 500 nM | C=CC(=O)N1CC[C@@H](N(C)c2nc(OC[C@@]34CCCN3C[C@H](F)C4)nc3c(F)c(-c4cccc(C(F)(F)F)c4C4CC4)ncc23)C1 [Example 198]
10 to 100 nM | CN(c1nc(OC[C@@]23CCCN2C[C@H](F)C3)nc2c(F)c(-c3cccc(Cl)c3C3CC3)ncc12)[C@@H]1CCN(C(=O)C#C[C@@]2(C)CCCN2C)C1 [Example 235]
< 10 nM | CN1CC[C@@H]1/C=C/C(=O)N1CC[C@@H](N(C)c2nc(OC[C@@]34CCCN3C[C@H](F)C4)nc3c(F)c(-c4nc(N)cc5cccc(F)c45)ncc23)C1 [Example 90]
